Tests used:
Format in all cases: cell-based
Conditions in all cases: 72 h
HL-60 cells = assay: CellTiter-Glo cell viability, HL-60
Description: (§1) The cell viability of 50 cancer cell lines was studied after treatment with Compound 121. Inhibition concentration values at 50% (IC50) were determined using CellTiter-Glo luminescent cell viability assay after incubation with different compound concentrations. GI50 values were determined according to the examples described above. Each cell line was treated with Compound 121, a standard chemotherapy drug as a reference control, and culture medium as a vehicle control.
(§2) All cells were cultured in media supplemented with 10-15% FBS at 37° C. in the presence of 5% CO2 and at 95% humidity. The culture medium was purchased from GIBCO or Sigma, USA. Cisplatin was chosen as the reference control and purchased from Hospira Australia Pty Ltd. The cell lines studied are presented in Table 5.
(§3) Cells were harvested during a logarithmic growth period and cell number count was determined using Count-star. Cell concentrations were adjusted to 4.44×10^4 cells/mL with respective culture medium. 90 μL of cell suspensions were added to two 96-well plates (plates A and B) with a final cell density of 4×10^3 cells/well.
(§4) 10 μL of culture medium was added to each well of plate A for TO reading. The plate was allowed to equilibrate at room temperature for approximately 30 min. 50 μL of CellTiter-Glo was added to each well and the contents were mixed for 5 min on an orbital shaker to induce cell lysis. The plate was allowed to incubate at room temperature for 20 min to stabilize luminescent signal.
(§5) 10 μM Compound 121 in media was serially diluted 3.16-fold to achieve 9 dose levels. Similarly, 100 μM reference control in media was serially diluted 3.16-fold to prepare reference control solutions. 10 μL drug solution and 10 μL of reference control was dispensed into each well in plate B.
(§6) Test plate B was incubated for 72 h in a humidified incubator at 37° C. in the presence of 5% CO2 and then subjected to CTG assay. The plate was allowed to equilibrate at room temperature for about 30 min. 50 μL of CellTiter-Glo was added to each well and the contents were mixed for 5 min on an orbital shaker to induce cell lysis. The plate was allowed to incubate at room temperature for 20 min to stabilize luminescent signal.
(§7) IC50 and GI50 values for each of the 50 cell lines are presented in Table 6 and were calculated based on the dose-response curves depicted in FIGS. 1-50. The dose-response curves were fitted using nonlinear regression model with a sigmoidal dose response. The formula for calculating survival rate was calculated by the formula:
(§8) Survival rate (%)=(LumTest article−LumMedium control)/(LumNone treated−LumMedium control)×100.

A-172 cells = assay: CellTiter-Glo cell viability, A-172
Description: as §1, §2, §3, §4, §5, §6, §7, §8

MDA-MB-453 cells = assay: CellTiter-Glo cell viability, MDA-MB-453
Description: as §1, §2, §3, §4, §5, §6, §7, §8

SCC-4 cells = assay: CellTiter-Glo cell viability, SCC-4
Description: as §1, §2, §3, §4, §5, §6, §7, §8

BT474 cells = assay: CellTiter-Glo cell viability, BT474
Description: as §1, §2, §3, §4, §5, §6, §7, §8

HeLa cells = assay: CellTiter-Glo cell viability, HeLa
Description: as §1, §2, §3, §4, §5, §6, §7, §8

SW579 cells = assay: CellTiter-Glo cell viability, SW579
Description: as §1, §2, §3, §4, §5, §6, §7, §8

KP4 cells = assay: CellTiter-Glo cell viability, KP4
Description: as §1, §2, §3, §4, §5, §6, §7, §8

NCI-H209 cells = assay: CellTiter-Glo cell viability, NCI-H209
Description: as §1, §2, §3, §4, §5, §6, §7, §8

NCI-H226 cells = assay: CellTiter-Glo cell viability, NCI-H226
Description: as §1, §2, §3, §4, §5, §6, §7, §8

SK-N-FI cells = assay: CellTiter-Glo cell viability, SK-N-FI
Description: as §1, §2, §3, §4, §5, §6, §7, §8

MDA-MB-231 cells = assay: CellTiter-Glo cell viability, MDA-MB-231
Description: as §1, §2, §3, §4, §5, §6, §7, §8

AN3 CA cells = assay: CellTiter-Glo cell viability, AN3 CA
Description: as §1, §2, §3, §4, §5, §6, §7, §8

NCI-H1155 cells = assay: CellTiter-Glo cell viability, NCI-H1155
Description: as §1, §2, §3, §4, §5, §6, §7, §8

A-673 cells = assay: CellTiter-Glo cell viability, A-673
Description: as §1, §2, §3, §4, §5, §6, §7, §8

HuT 78 cells = assay: CellTiter-Glo cell viability, HuT 78
Description: as §1, §2, §3, §4, §5, §6, §7, §8

786-O cells = assay: CellTiter-Glo cell viability, 786-O
Description: as §1, §2, §3, §4, §5, §6, §7, §8

JHH-5 cells = assay: CellTiter-Glo cell viability, JHH-5
Description: as §1, §2, §3, §4, §5, §6, §7, §8

HCT-116 cells = assay: CellTiter-Glo cell viability, HCT-116
Description: as §1, §2, §3, §4, §5, §6, §7, §8

KYSE-150 cells = assay: CellTiter-Glo cell viability, KYSE-150
Description: as §1, §2, §3, §4, §5, §6, §7, §8

HT-1080 cells = assay: CellTiter-Glo cell viability, HT-1080
Description: as §1, §2, §3, §4, §5, §6, §7, §8

[1] = top conc. 10 μM Compound 121, 100 μM cisplatin

N.N.[Cl][Pt][Cl] [Cisplatin, reference compound] was tested, and the GI50 (HL-60 cells; read-out: Absolute GI50) was 1.34 µM, the IC50 (HL-60 cells; read-out: Absolute IC50) was 1.46 µM and the “% inhibition at top conc.” value (HL-60 cells; [1]) was 99.99%. The GI50 (A-172 cells; read-out: Absolute GI50) was 15.9 µM, the IC50 (A-172 cells; read-out: Absolute IC50) was 20.3 µM and the “% inhibition at top conc.” value (A-172 cells; [1]) was 93.09%. For the same compound, the GI50 (MDA-MB-453 cells; read-out: Absolute GI50) was 7.05 µM, the IC50 (MDA-MB-453 cells; read-out: Absolute IC50) was 9.51 µM and the “% inhibition at top conc.” value (MDA-MB-453 cells; [1]) was 96.82%. For the same compound, the GI50 (SCC-4 cells; read-out: Absolute GI50) was 3.43 µM, the IC50 (SCC-4 cells; read-out: Absolute IC50) was 4.15 µM and the “% inhibition at top conc.” value (SCC-4 cells; [1]) was 99.29%. For the same compound, the GI50 (BT474 cells; read-out: Absolute GI50) was 39.3 µM, the IC50 (BT474 cells; read-out: Absolute IC50) was 45.1 µM and the “% inhibition at top conc.” value (BT474 cells; [1]) was 59.96%. For the same compound, the GI50 (HeLa cells; read-out: Absolute GI50) was 0.3 µM, the “% inhibition at top conc.” value (HeLa cells; [1]) was 99.60% and the GI50 (SW579 cells; read-out: Absolute GI50) was 1.83 µM. For the same compound, the IC50 (SW579 cells; read-out: Absolute IC50) was 2.24 µM, the “% inhibition at top conc.” value (SW579 cells; [1]) was 99.88% and the GI50 (KP4 cells; read-out: Absolute GI50) was 6.87 µM. For the same compound, the IC50 (KP4 cells; read-out: Absolute IC50) was 8.8 µM, the “% inhibition at top conc.” value (KP4 cells; [1]) was 98.30% and the GI50 (NCI-H209 cells; read-out: Absolute GI50) was 0.14 µM. The IC50 (NCI-H209 cells; read-out: Absolute IC50) was 0.23 µM, the “% inhibition at top conc.” value (NCI-H209 cells; [1]) was 98.81% and the GI50 (NCI-H226 cells; read-out: Absolute GI50) was 5.72 µM. The IC50 (NCI-H226 cells; read-out: Absolute IC50) was 7.36 µM, the “% inhibition at top conc.” value (NCI-H226 cells; [1]) was 94.81% and the GI50 (SK-N-FI cells; read-out: Absolute GI50) was 5.8 µM. For the same compound, the IC50 (SK-N-FI cells; read-out: Absolute IC50) was 9.26 µM, the “% inhibition at top conc.” value (SK-N-FI cells; [1]) was 99.77% and the GI50 (MDA-MB-231 cells; read-out: Absolute GI50) was 18.6 µM. For the same compound, the “% inhibition at top conc.” value (MDA-MB-231 cells; [1]) was 85.68%, the GI50 (AN3 CA cells; read-out: Absolute GI50) was 3.68 µM and the IC50 (AN3 CA cells; read-out: Absolute IC50) was 4.38 µM. For the same compound, the “% inhibition at top conc.” value (AN3 CA cells; [1]) was 99.95%, the GI50 (NCI-H1155 cells; read-out: Absolute GI50) was 1.52 µM and the IC50 (NCI-H1155 cells; read-out: Absolute IC50) was 1.75 µM. For the same compound, the “% inhibition at top conc.” value (NCI-H1155 cells; [1]) was 90.61%, the GI50 (A-673 cells; read-out: Absolute GI50) was 0.4 µM and the IC50 (A-673 cells; read-out: Absolute IC50) was 1.12 µM. For the same compound, the “% inhibition at top conc.” value (A-673 cells; [1]) was 99.59%, the GI50 (HuT 78 cells; read-out: Absolute GI50) was 0.5 µM and the IC50 (HuT 78 cells; read-out: Absolute IC50) was 0.66 µM. The “% inhibition at top conc.” value (HuT 78 cells; [1]) was 98.27%, the GI50 (786-O cells; read-out: Absolute GI50) was 1.6 µM and the IC50 (786-O cells; read-out: Absolute IC50) was 1.77 µM. The “% inhibition at top conc.” value (786-O cells; [1]) was 98.46%, the GI50 (JHH-5 cells; read-out: Absolute GI50) was 1.97 µM and the IC50 (JHH-5 cells; read-out: Absolute IC50) was 2.27 µM. The “% inhibition at top conc.” value (JHH-5 cells; [1]) was 87.18%, the GI50 (HCT-116 cells; read-out: Absolute GI50) was 4.14 µM and the IC50 (HCT-116 cells; read-out: Absolute IC50) was 4.35 µM. For the same compound, the “% inhibition at top conc.” value (HCT-116 cells; [1]) was 95.29%, the GI50 (KYSE-150 cells; read-out: Absolute GI50) was 6.26 µM and the IC50 (KYSE-150 cells; read-out: Absolute IC50) was 8.14 µM. The “% inhibition at top conc.” value (KYSE-150 cells; [1]) was 91.28%, the GI50 (HT-1080 cells; read-out: Absolute GI50) was 1.98 µM and the IC50 (HT-1080 cells; read-out: Absolute IC50) was 2.22 µM. The “% inhibition at top conc.” value (HT-1080 cells; [1]) was 99.59%.

From patent US20210196724A1, “BIARYL COMPOSITIONS AND METHODS FOR MODULATING A KINASE CASCADE” (Athenex, Inc., priority 2016, published 2021)
